From patent EP0726263A2, “Herbicidal (1,3,4)oxadiazoles and thiadiazoles” (American Cyanamid Company, priority 1995, dated 1996)

What was measured:
Assay type in all cases: in vivo
Glycine max [1] = assay: Herbicidal activity, preemergence test; details: pre; sprayed onto soil, 800 g of active material per hectare; evaluated 3 weeks after treatment
Protocol: (§1) To evaluate their herbicidal activity, compounds according to the invention are tested using a representative range of plants: TRZAW Triticum aestivum HORVW Hordeum vulgare ZEAMX Zea mays GOSHI Gossypium hirsutum HELAN Helianthus annuus GLYMA Glycine max ALOMY Alopecurus myosuroides SETVI Setaria viridis ECHCG Echinochloa crus-galli GALAP Galium aparine STEME Stellaria media VERPE Veronica persica VIOAR Viola arvensis IPOHE Ipomoea hederacea LAMPU Lamium purpureum PAPRH Papaver rhoeas MATIN Matricaria inodora AMARE Amaranthus retroflexus ABUTH Abutilon theophrasti AMBEL Ambrosia artemisifolia CHEAL Chenopodium album
(§2) The tests fall into two categories, preemergence and postemergence. The preemergence tests involve spraying a liquid formulation of the compound onto the soil in which the seeds have recently been sown. The postemergence tests involve spraying a liquid formulation of the compound onto seedling plants.
(§3) The soil used in the tests is a prepared horticultural loam.
(§4) The formulations used in the tests are prepared from solutions of the test compounds in acetone containing 0.4% by weight of an alkylphenol/ethylene oxide condensate available under the trade mark TRITON X-155. These acetone solutions are diluted with water and the resulting formulations applied at dosage levels corresponding to 800 g of active material per hectare in a volume equivalent to 900 litres per hectare.
(§5) In the preemergence tests untreated sown soil and in the postemergence tests untreated soil bearing seedling plants are used as controls.
(§6) Results of herbicide evaluation are expressed on a rating scale (0-9). The scale is based upon a visual observation of plant stand, vigor, malformation, size, chlorosis, and general plant appearance as compared to a control. Preemergence and postemergence treatments are evaluated at 3 and 2 weeks after treatment, respectively.

Lamium purpureum [2] = assay: Herbicidal activity, preemergence test; details: pre; sprayed onto soil, 800 g of active material per hectare; evaluated 3 weeks after treatment
Protocol: as §1, §2, §3, §4, §5, §6

Stellaria media [3] = assay: Herbicidal activity, preemergence test; details: pre; sprayed onto soil, 800 g of active material per hectare; evaluated 3 weeks after treatment
Protocol: as §1, §2, §3, §4, §5, §6

Gossypium hirsutum [4] = assay: Herbicidal activity, preemergence test; details: pre; sprayed onto soil, 800 g of active material per hectare; evaluated 3 weeks after treatment
Protocol: as §1, §2, §3, §4, §5, §6

Hordeum vulgare [5] = assay: Herbicidal activity, preemergence test; details: pre; sprayed onto soil, 800 g of active material per hectare; evaluated 3 weeks after treatment
Protocol: as §1, §2, §3, §4, §5, §6

Zea mays [6] = assay: Herbicidal activity, preemergence test; details: pre; sprayed onto soil, 800 g of active material per hectare; evaluated 3 weeks after treatment
Protocol: as §1, §2, §3, §4, §5, §6

Abutilon theophrasti [7] = assay: Herbicidal activity, preemergence test; details: pre; sprayed onto soil, 800 g of active material per hectare; evaluated 3 weeks after treatment
Protocol: as §1, §2, §3, §4, §5, §6

Galium aparine [8] = assay: Herbicidal activity, preemergence test; details: pre; sprayed onto soil, 800 g of active material per hectare; evaluated 3 weeks after treatment
Protocol: as §1, §2, §3, §4, §5, §6

Triticum aestivum [9] = assay: Herbicidal activity, preemergence test; details: pre; sprayed onto soil, 800 g of active material per hectare; evaluated 3 weeks after treatment
Protocol: as §1, §2, §3, §4, §5, §6

Matricaria inodora [10] = assay: Herbicidal activity, preemergence test; details: pre; sprayed onto soil, 800 g of active material per hectare; evaluated 3 weeks after treatment
Protocol: as §1, §2, §3, §4, §5, §6

Veronica persica [11] = assay: Herbicidal activity, preemergence test; details: pre; sprayed onto soil, 800 g of active material per hectare; evaluated 3 weeks after treatment
Protocol: as §1, §2, §3, §4, §5, §6

Alopecurus myosuroides [12] = assay: Herbicidal activity, preemergence test; details: pre; sprayed onto soil, 800 g of active material per hectare; evaluated 3 weeks after treatment
Protocol: as §1, §2, §3, §4, §5, §6

Ipomoea hederacea [13] = assay: Herbicidal activity, preemergence test; details: pre; sprayed onto soil, 800 g of active material per hectare; evaluated 3 weeks after treatment
Protocol: as §1, §2, §3, §4, §5, §6

Ambrosia artemisifolia [14] = assay: Herbicidal activity, preemergence test; details: pre; sprayed onto soil, 800 g of active material per hectare; evaluated 3 weeks after treatment
Protocol: as §1, §2, §3, §4, §5, §6

Setaria viridis [15] = assay: Herbicidal activity, preemergence test; details: pre; sprayed onto soil, 800 g of active material per hectare; evaluated 3 weeks after treatment
Protocol: as §1, §2, §3, §4, §5, §6

Chenopodium album [16] = assay: Herbicidal activity, preemergence test; details: pre; sprayed onto soil, 800 g of active material per hectare; evaluated 3 weeks after treatment
Protocol: as §1, §2, §3, §4, §5, §6

Amaranthus retroflexus [17] = assay: Herbicidal activity, preemergence test; details: pre; sprayed onto soil, 800 g of active material per hectare; evaluated 3 weeks after treatment
Protocol: as §1, §2, §3, §4, §5, §6

Papaver rhoeas [18] = assay: Herbicidal activity, preemergence test; details: pre; sprayed onto soil, 800 g of active material per hectare; evaluated 3 weeks after treatment
Protocol: as §1, §2, §3, §4, §5, §6

Glycine max [19] = assay: Herbicidal activity, postemergence test; details: post; sprayed onto seedling plants, 800 g of active material per hectare; evaluated 2 weeks after treatment
Protocol: as §1, §2, §3, §4, §5, §6

Lamium purpureum [20] = assay: Herbicidal activity, postemergence test; details: post; sprayed onto seedling plants, 800 g of active material per hectare; evaluated 2 weeks after treatment
Protocol: as §1, §2, §3, §4, §5, §6

Stellaria media [21] = assay: Herbicidal activity, postemergence test; details: post; sprayed onto seedling plants, 800 g of active material per hectare; evaluated 2 weeks after treatment
Protocol: as §1, §2, §3, §4, §5, §6

Gossypium hirsutum [22] = assay: Herbicidal activity, postemergence test; details: post; sprayed onto seedling plants, 800 g of active material per hectare; evaluated 2 weeks after treatment
Protocol: as §1, §2, §3, §4, §5, §6

Hordeum vulgare [23] = assay: Herbicidal activity, postemergence test; details: post; sprayed onto seedling plants, 800 g of active material per hectare; evaluated 2 weeks after treatment
Protocol: as §1, §2, §3, §4, §5, §6

Zea mays [24] = assay: Herbicidal activity, postemergence test; details: post; sprayed onto seedling plants, 800 g of active material per hectare; evaluated 2 weeks after treatment
Protocol: as §1, §2, §3, §4, §5, §6

Abutilon theophrasti [25] = assay: Herbicidal activity, postemergence test; details: post; sprayed onto seedling plants, 800 g of active material per hectare; evaluated 2 weeks after treatment
Protocol: as §1, §2, §3, §4, §5, §6

Galium aparine [26] = assay: Herbicidal activity, postemergence test; details: post; sprayed onto seedling plants, 800 g of active material per hectare; evaluated 2 weeks after treatment
Protocol: as §1, §2, §3, §4, §5, §6

Triticum aestivum [27] = assay: Herbicidal activity, postemergence test; details: post; sprayed onto seedling plants, 800 g of active material per hectare; evaluated 2 weeks after treatment
Protocol: as §1, §2, §3, §4, §5, §6

Matricaria inodora [28] = assay: Herbicidal activity, postemergence test; details: post; sprayed onto seedling plants, 800 g of active material per hectare; evaluated 2 weeks after treatment
Protocol: as §1, §2, §3, §4, §5, §6

Veronica persica [29] = assay: Herbicidal activity, postemergence test; details: post; sprayed onto seedling plants, 800 g of active material per hectare; evaluated 2 weeks after treatment
Protocol: as §1, §2, §3, §4, §5, §6

Alopecurus myosuroides [30] = assay: Herbicidal activity, postemergence test; details: post; sprayed onto seedling plants, 800 g of active material per hectare; evaluated 2 weeks after treatment
Protocol: as §1, §2, §3, §4, §5, §6

Ipomoea hederacea [31] = assay: Herbicidal activity, postemergence test; details: post; sprayed onto seedling plants, 800 g of active material per hectare; evaluated 2 weeks after treatment
Protocol: as §1, §2, §3, §4, §5, §6

Ambrosia artemisifolia [32] = assay: Herbicidal activity, postemergence test; details: post; sprayed onto seedling plants, 800 g of active material per hectare; evaluated 2 weeks after treatment
Protocol: as §1, §2, §3, §4, §5, §6

Setaria viridis [33] = assay: Herbicidal activity, postemergence test; details: post; sprayed onto seedling plants, 800 g of active material per hectare; evaluated 2 weeks after treatment
Protocol: as §1, §2, §3, §4, §5, §6

Chenopodium album [34] = assay: Herbicidal activity, postemergence test; details: post; sprayed onto seedling plants, 800 g of active material per hectare; evaluated 2 weeks after treatment
Protocol: as §1, §2, §3, §4, §5, §6

Amaranthus retroflexus [35] = assay: Herbicidal activity, postemergence test; details: post; sprayed onto seedling plants, 800 g of active material per hectare; evaluated 2 weeks after treatment
Protocol: as §1, §2, §3, §4, §5, §6

Papaver rhoeas [36] = assay: Herbicidal activity, postemergence test; details: post; sprayed onto seedling plants, 800 g of active material per hectare; evaluated 2 weeks after treatment
Protocol: as §1, §2, §3, §4, §5, §6

O=C(NCc1ccccc1)c1nnc(-c2ccc(F)cc2)o1 [Example 9]
GLXMA control rating (0-9) (Glycine max [1]): 1 (trace effect) | LAMPU control rating (0-9) (Lamium purpureum [2]): 0 (no effect) | STEME control rating (0-9) (Stellaria media [3]): 0 (no effect) | GOSHI control rating (0-9) (Gossypium hirsutum [4]): 0 (no effect) | HORVW control rating (0-9) (Hordeum vulgare [5]): 0 (no effect) | ZEAMX control rating (0-9) (Zea mays [6]): 0 (no effect) | ABUTH control rating (0-9) (Abutilon theophrasti [7]): 0 (no effect) | GALAP control rating (0-9) (Galium aparine [8]): 0 (no effect) | TRZAW control rating (0-9) (Triticum aestivum [9]): 0 (no effect) | MATIN control rating (0-9) (Matricaria inodora [10]): 0 (no effect) | VERPE control rating (0-9) (Veronica persica [11]): 7 (good herbicidal effect) | ALOMY control rating (0-9) (Alopecurus myosuroides [12]): 0 (no effect) | IPOHE control rating (0-9) (Ipomoea hederacea [13]): 0 (no effect) | AMBEL control rating (0-9) (Ambrosia artemisifolia [14]): 0 (no effect) | SETVI control rating (0-9) (Setaria viridis [15]): 3 (moderate effect) | CHEAL control rating (0-9) (Chenopodium album [16]): 0 (no effect) | AMARE control rating (0-9) (Amaranthus retroflexus [17]): 0 (no effect) | PAPRH control rating (0-9) (Papaver rhoeas [18]): 6 (herbicidal effect) | GLXMA control rating (0-9) (Glycine max [19]): 0 (no effect) | LAMPU control rating (0-9) (Lamium purpureum [20]): 0 (no effect) | STEME control rating (0-9) (Stellaria media [21]): 0 (no effect) | GOSHI control rating (0-9) (Gossypium hirsutum [22]): 0 (no effect) | HORVW control rating (0-9) (Hordeum vulgare [23]): 0 (no effect) | ZEAMX control rating (0-9) (Zea mays [24]): 0 (no effect) | ABUTH control rating (0-9) (Abutilon theophrasti [25]): 3 (moderate effect) | GALAP control rating (0-9) (Galium aparine [26]): 0 (no effect) | TRZAW control rating (0-9) (Triticum aestivum [27]): 0 (no effect) | MATIN control rating (0-9) (Matricaria inodora [28]): 0 (no effect) | VERPE control rating (0-9) (Veronica persica [29]): 0 (no effect) | ALOMY control rating (0-9) (Alopecurus myosuroides [30]): 0 (no effect) | IPOHE control rating (0-9) (Ipomoea hederacea [31]): 0 (no effect) | AMBEL control rating (0-9) (Ambrosia artemisifolia [32]): 0 (no effect) | SETVI control rating (0-9) (Setaria viridis [33]): 0 (no effect) | CHEAL control rating (0-9) (Chenopodium album [34]): 0 (no effect) | AMARE control rating (0-9) (Amaranthus retroflexus [35]): 0 (no effect) | PAPRH control rating (0-9) (Papaver rhoeas [36]): 0 (no effect)
